Legend:
[1] = Withdrawal from long-term drug or alcohol treatment, mouse light/dark box test; format: in vivo
Procedure: The effect of the compounds of the instant invention is illustrated, for example, in the mouse "light/dark box" test in FIGS. 5-12.
In FIG. 5, five animals were given nicotine, 0.1 mg/kg i.p.b.d. for 14 days. After a 24-hour withdrawal period, compound (20) was given at 1.0 mg/kg i.p.b.d.
FIG. 6 illustrates the effect of long-term treatment and withdrawal from nicotine using compound (20A). Five mice were given nicotine at 0.1 mg/kg i.p.b.d. for 14 days. After a withdrawal period of 24 hours, compound (20A) was given at 10 mg/kg i.p.b.d.
FIG. 7 illustrates the effect of long-term treatment and withdrawal from diazepam with intervention with compound (20). Five mice were given diazepam, at 10 mg/kg i.p.b.d. for seven days. Withdrawal was for a 24-hour period; compound 20 was given at 1.0 mg/kg i.p.b.d.
FIG. 8 illustrates the effect of compound (20A) on the long-term treatment and withdrawal from diazepam. Five mice were given diazepam at 10 mg/kg i.p.b.d. for seven days. After a withdrawal period of 24 hours, compound (20A) was given at 10 mg/kg i.p.b.d.
FIG. 9 illustrates the effect compound (20A) on the long-term treatment and withdrawal from alcohol. Five mice were given alcohol in drinking water 8% w/v for 14 days. After a withdrawal period of 24 hours, compound (20) was given at 1.0 mg/kg i.p.b.d.
Five mice were given alcohol in drinking water, 8% w/v for 14 days. After a withdrawal period of 24 hours, compound (20A) was given at 10 mg/kg i.p.b.d.
FIG. 11 illustrates the effectiveness in the long-term treatment and withdrawal from cocaine. Five mice were given cocaine as 1.0 mg/kg i.p.b.d. for 14 days.
Five mice were given cocaine at 1.0 mg/kg i.p.b.d. for 14 days after a withdrawal period of 24 hours, compound (20a) was given at 1.0 mg/kg i.p.b.d.

[2] = Flexor response in stimulated spinalized decerebrated rat preparation
[3] = test system: pentagastrin stimulated gastric acid secretion; experiment: Pentagastrin stimulated gastric acid secretion (Ghosh and Schild perfused stomach); format: in vivo, rat; conditions: 1 nmole/kg pentagastrin
Procedure: They were anesthetized with urethane (1.5 g/kg IP) and the trachea cannulated to aid spontaneous respiration. The stomach was perfused continuously using a modification of the original method of Ghosh & Schild in "Continuous recording of acid secretion in the rat", Br. J. Pharmac. […] The fluid was propelled by a roller pump (Gilson, Minipuls 2), through heating coils to bring its temperature to 37°±1° C. The perfusion fluid was collected by the fundic collecting funnel and passed to a pH electrode connected to a Jenway pH meter (PHM6). An output was taken from the pH meter to a Rikadenki chart recorder for the on-line recording of the pH of the gastric perfusate.
Pentagastrin was stored as a frozen aliquot and diluted to the required concentrations with sterile 0.9% w/v NaCl. Novel compounds were dissolved in sterile 0.9% w/v NaCl on the day of the experiment. Drugs were administered IV through a cannulated jugular vein as a bolus in a dose volume of 1 mL/kg washed in with 0.15 mL 0.9% w/v NaCl. Basal pH was allowed to stabilize before administration of compounds was begun.

[4] = Antagonism of intra-accumbens amphetamine hyperactivity (antipsychotic activity); format: in vivo, rat; conditions: 10 mg/kg intraperitoneal; amphetamine 20 μg
Procedure: Male Sprague Dawley (CD) Bradford strain rats were used. The rats were housed in groups of five at a temperature of 21°±2° C. on a 12 hour light-dark cycle of lights-on between 07 hours 00 minutes and […]. Rats were fed CRM diet (Labsure) and allowed water ad libitum.
Rats were anesthetized with chloral hydrate (400 mg/kg SC) and placed in a Kopf stereotaxic frame. Chronically indwelling guide cannulae (constructedof stainless steel tubing 0.65 mm diameter held bilaterally in Parspex holders) were implanted using standard stereotaxic techniques to terminate 3.5 mm above the center of the nucleus accumbens (Ant. 9.4, Vert. 0.0, Lat. 1.6) or 5.0 mm above the central nucleus of the amygdala (Ant. 5.8, Vert. -1.8, Lat. ±4.5) (atlas of De Groot, 1959). The guides were kept patent during a 14-day recovery period using stainless steel stylers, 0.3 mm diameter, which extended 0.5 mmbeyond the guide tips.
Rats were manually restrained and the stylers removed. Intracerebral injection cannulae, 0.3 mm diameter, were inserted and drugs delivered in a volume of 0.5 μl over 5 seconds (a further 55 seconds was allowed for deposition) from Hamilton syringes attached via polythene tubing to the injection units. […]
The abilities of the compounds (20) and (20A) to inhibit the hyperactivity caused by the injection of amphetamine into the nucleus accumbens of the rat was measured. […]

[5] = Rat Social Interaction Test; format: in vivo; conditions: 0,001 to 1.0 mg/kg s.c., paired rats
Description: (Costall, B., University of Bradford)

[6] = Light/dark exploration test (anxiolytic activity); format: in vivo, mouse
Procedure: In FIG. 2 the number of mice was 5 and the pretreatment time was 40 minutes. The compound was given p.o. in 0.1, 1, and 10 mg/kg doses.
The apparatus was an open-topped box, 45 cm long, 27 cm wide, and 27 cm high, divided into a small (2/5) area and a large (3/5) area by a partition that extended 20 cm above the walls. There was a 7.5×7.5 cm opening in the partition at floor level. The small compartment was painted black and the large compartment white. The floor of each compartment was marked into 9 cm squares. The white compartment was illuminated by a 100-watt tungsten bulb 17 cm above the box and the black compartment by a similarly placed 60-watt red bulb. The laboratory was illuminated with red light.
All tests were performed between 13 hundred hours, 0 minutes and 18 hundred hours, 0 minutes. Each mouse was tested by placing it in the center of the white area and allowing it to explore the novel environment for five minutes. Its behavior was recorded on videotape and the behavioral analysis was performed subsequently from the recording. Five parameters were measured: the latency to entry into the dark compartment, the time spent in each area, the number of transitions between compartments, the number of lines crossed in each compartment, and the number of rears in each compartment.
Drugs were dissolved in water or saline and administered either subcutaneously, intraperitoneally, or by mouth (PO) via a stomach needle.

[7] = 1 mg/kg SC, five-minute measurement periods

CC(Cc1c[nH]c2ccccc12)(NC(=O)OC1C2CC3CC(C2)CC1C3)C(=O)NCC(NC(=O)CCC(=O)O)c1ccccc1 (stereo not drawn) [Example 20, [R-(R*,R*)-4-[[2-[[3-(1H-indol-3-yl)-2-methyl-1-oxo-2-[[(tricyclo[3.3.1.1^3,7]dec-2-yloxy)carbonyl]amino]propyl]amino]-1-phenylethyl]amino]-4-oxobutanoic acid]
time spent in the light section after withdrawal from alcohol (FIG. 9) ([1]; alcohol 8% w/v in drinking water 14 days, 24-hour withdrawal, compound 1.0 mg/kg i.p.b.d.): demonstrates the effectiveness of the compound | time in the light section after withdrawal from cocaine (FIG. 11) ([1]; cocaine 1.0 mg/kg i.p.b.d. 14 days): increased time in the light section | time spent in the light section after withdrawal from diazepam (FIG. 7) ([1]; diazepam 10 mg/kg i.p.b.d. seven days, 24-hour withdrawal, compound 1.0 mg/kg i.p.b.d.): increased time spent in the light section | time spent in the light area after withdrawal from nicotine (FIG. 5) ([1]; nicotine 0.1 mg/kg i.p.b.d. 14 days, 24-hour withdrawal, compound 1.0 mg/kg i.p.b.d.): increased time spent in the light area | flexor response (FIG. 16) ([2]; compound alone, similar to morphine): depresses the flexor response | duration of the potentiated effect ([2]; given with morphine): 3 h | effect on flexor response when given with morphine (FIG. 16) ([2]; given with morphine): greatly potentiates the effect | reversibility of the antagonism [3]: reversible with full recovery of the response to pentagastrin | effect on stimulation of gastric acid secretion produced by pentagastrin ([3]; compound IV, anesthetized rat): antagonized | hyperactivity caused by intra-accumbens injection of amphetamine [4]: reduced the hyperactivity | time spent in social interaction compared with control (FIG. 13) [5]: increase in time spent in social interaction | time spent in the light area of the test box ([6]; 1 mg/kg PO): significantly (p <0.01) increased the time spent in the light area | crossings into the dark area [6, 7]: 24 | crossings into the light area [6, 7]: 85 | anxiolytic activity, orally administered (FIG. 2) ([6]; p.o. 0.1, 1, and 10 mg/kg, pretreatment 40 minutes): effectiveness | anxiolytic activity by the subcutaneous route ([6]; subcutaneous): active

From patent US5622983A, “N-substituted cycloalkyl and polycycloalkyl α-substituted Trp-Phe- and phenethylamine derivatives” (Warner-Lambert Company, priority 1995, dated 1997)
